Source: the METLIN SMRT retention time set (Domingo-Almenara et al. 2019)

Assay: gradient 5% acetonitrile 3 min, to 50% in 2 min, to 85% in 15 min, held 3 min, 100 µL/min
Settings: column: Zorbax Extend-C18 2.1 x 50 mm; eluents: water / acetonitrile, 0.1% formic acid
Summary of the method: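 Data were gathered over 3 months by HPLC coupled to a quadrupole time-of-flight mass spectrometer, operated in positive and negative ionization mode. Mixtures of ~100 pure standards ran on a Zorbax Extend-C18 column (2.1 × 50 mm, 1.8 μm) at 100 μL/min, with water and acetonitrile each containing 0.1% formic acid and dead and dwell volumes of 40 μL and 900 μL. Retention time was read from adduct peaks picked by computer and checked manually.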

Row | Compound | RP-LC retention time [s]
1 | Cc1ccc(Nc2c(-c3ccc([N+](=O)[O-])cc3)nc3ccc(C)cn23)cc1 | 838
2 | CCOC(=O)c1c(C)[nH]c(C)c1S(=O)(=O)N1CCC(C(=O)NC2CCCC2)CC1 | 735
3 | O=C(Cn1c(=O)oc2ccccc21)N1[C@H]2CC[C@@H]1c1cnc(-c3ccc(F)cc3)nc1C2 | 912
4 | CCc1cc(=O)n(CC(=O)Nc2cc(C)ccc2OC)c(N2CCOCC2)n1 | 854
5 | Cc1ccc(C)c2sc(N(C)CC(=O)NCCn3nc(-c4ccco4)ccc3=O)nc12 | 784
6 | CCN1C(=O)c2ccccc2Oc2ccc(C(=O)NC(C)Cc3ccco3)cc21 (configuration not stated) | 929
7 | O=C(Nc1cccc(-c2nc3ncccc3o2)c1)[C@@H]1OCCN(C2CC2)[C@H]1c1ccccc1 | 678
8 | COc1ccc(NC(=O)CN2C(=O)C(C)(C)c3ccccc32)cc1 | 826
9 | O=C(CSc1ccccn1)Nc1nc(-c2ccccc2)cs1 | 986
10 | Cn1c(=O)n(CC(=O)N2CCCCCC2)c(=O)c2cnc(-c3ccccc3)nc21 | 987
11 | CCOC(=O)N1CCC2(CC1)OC(=O)C(C)=C2C(=O)Nc1ccc(F)cc1F | 840
12 | COc1ccc(N2CC(c3noc(-c4ccc5c(c4)OCO5)n3)CC2=O)cc1OC (configuration not stated) | 770
13 | Cn1c(=O)sc2cc(S(=O)(=O)N3CCC(C(=O)NCCN4CCCCCC4)CC3)ccc21 | 623
14 | O=C(Nc1cnn(-c2ncncc2N2CCCCC2)c1)C1CCCCC1 | 821
15 | Cc1ccc(NC(=O)Cn2c(C(C)C)nc3c(c2=O)CCN(Cc2ccccc2)C3)c(C)c1 | 705
16 | O=C(NCCc1csc(-c2ccccc2)n1)[C@H]1CCCN1C(=O)C1CCCC1 | 814
17 | O=C(NCCCN1CCCC1=O)c1csc(N2CCN(c3ccccc3)CC2)n1 | 781
18 | O=C(NCc1cccs1)C1CCCN(c2nnc3ccc(Cl)cn23)C1 (configuration not stated) | 650
19 | Nc1nc(-c2ccccc2)nn1C(=O)c1ccccc1F | 862
20 | Cc1ccc(CNC(=O)C2CCCN(C(=O)c3cc(-c4cccnc4)n[nH]3)C2)o1 (configuration not stated) | 611
21 | CC1CCN(S(=O)(=O)c2ccc3c(ccn3CCC(=O)N3CCN(c4ccccn4)CC3)c2)CC1 | 728
22 | Cc1ccc(-c2nnc(N3CCC(C(=O)NCC4CCCCC4)CC3)o2)cc1 | 959

Row | Compound | RP-LC retention time [s]
23 | Cc1ccc(NC(=O)COc2cccc3c(=O)n(C)ccc23)cc1 | 795
24 | COCCN1C(=O)CCC2(C(=O)NCCc3ccncc3)CCCC=C12 (configuration not stated) | 542
25 | CCCOc1ccccc1C(=O)N(Cc1ccc(Br)o1)C1CCS(=O)(=O)C1 (configuration not stated) | 927
26 | Cc1ccccc1-c1nc(C2CCN(S(=O)(=O)c3ccc4c(c3)CCCC4)CC2)no1 | 1380
27 | CCOC(=O)c1ccc(NC(=O)Cc2csc3nc(-c4ccc(OC)c(OC)c4)cn23)cc1 | 756
28 | Cc1ccc(Nc2c(-c3ccc(N(C)C)cc3)nc3cnccn23)cc1Cl | 958
29 | COc1ccc(Br)cc1C1C(C(=O)N2CCOCC2)=C(C)NC2=C1C(=O)CCC2 (configuration not stated) | 660
30 | CN(C)[C@@H]1CN(C(=O)c2ccsc2)CC[C@]1(O)c1ccccc1 | 576
31 | Cc1cc(Cl)ccc1OCc1nc(-c2ccc(NS(=O)(=O)c3cccs3)cc2)no1 | 1180
32 | Cc1ccc(CNC(=O)NC2CCN(c3nc4cccnc4n(C)c3=O)CC2)cc1 | 860
33 | CN1C(=O)c2cccn2CC1C(=O)N1CCc2ccccc21 (configuration not stated) | 703
34 | O=C1[C@H]2CN(Cc3cccc(F)c3)C[C@H]2C(=O)N1Cc1ccc2c(c1)OCO2 | 800
35 | CC(C)n1cnc(S(=O)(=O)N2CCC(C(=O)Nc3cccc(Br)c3)CC2)c1 | 843
36 | COc1ccc(C)cc1NC(=O)N1CCCC1c1nc(-c2ccccc2OC)no1 (configuration not stated) | 940
37 | CC1=C(c2ccccc2)S(=O)(=O)N=C1N1CCCN(C(=O)Cc2ccsc2)CC1 | 721
38 | CC(C)CNc1nnc(-c2nc(C3CC3)no2)c2ccccc12 | 657
39 | CC(C)C(=O)NCCC1CCN(C(=O)Nc2cc(F)ccc2F)CC1 | 742
40 | CCCN(C(=O)C1CCCN(c2ncnc3c2nc2n3CCCCC2)C1)c1ccccc1C (configuration not stated) | 1000
41 | Cc1cccn2cc(-c3ccc(NC(=O)c4ncccn4)cc3)nc12 | 680
42 | COc1ccc2c(c1)C1(CCN(C(=O)NC(C)(C)C)C1)C(=O)N2C (configuration not stated) | 753
43 | CCCCC(=O)N1CCN(c2nc3ccccc3cc2-c2noc(C)n2)CC1 | 913
44 | Nc1ccc2c(c1)Cc1cc(Cl)c(Cl)cc1-2 | 963

Row | Compound | RP-LC retention time [s]
45 | Cc1ccnc(N2CCC(C(=O)NC3CCCC3)CC2)n1 | 628
46 | COc1ccc(C)cc1NC(=O)N1CCC2(CC1)NC(=O)c1ccc(Cl)cc1N2 | 806
47 | O=C([C@@H]1C[C@H](F)CN1S(=O)(=O)Cc1ccc(Cl)cc1)N1CCc2ccccc2C1 | 1020
48 | Cc1ccc(CNC(=O)C2CCCN(c3nc4ccsc4c(=O)n3Cc3ccc(C)cc3)C2)cc1 (configuration not stated) | 1060
49 | Cc1c(S(=O)(=O)NCc2ccco2)c(C)n(C)c1-c1nnc(C2CCC2)o1 | 853
50 | O=C(NCCC1=CCCCC1)C(=O)NCC1CCN(Cc2ccco2)CC1 | 581
51 | O=C(NCCc1ccccc1)C1CCN(C(=O)c2ncn3c2COC(c2ccc(Cl)cc2)C3)CC1 (configuration not stated) | 815
52 | Cc1ccc(NC(=O)CC(=O)Nc2ccc3nc4n(c(=O)c3c2)CCCCC4)cc1F | 750
53 | Cc1oc(-c2[nH]ncc2C(=O)N(C)C)cc1S(=O)(=O)Nc1ccc(F)c(F)c1 | 890
54 | CN(C)c1ccc2c(c1)CN(C(=O)C1CC1)CCO2 | 574
55 | CCC(=O)Nc1nc(-c2ccc3c(c2)NC(=O)C(C)O3)c(C)s1 (configuration not stated) | 759
56 | CC1CCN(C(=O)C2=CN(c3ccc(N(C)C)cc3)c3ccccc3S2(=O)=O)CC1 | 978
57 | CCNc1cc(N2CCCC(CCC(=O)N3CCC(C)CC3)C2)ncn1 (configuration not stated) | 676
58 | CCN(CC)c1nc2ccsc2c(=O)n1CCC(=O)NCc1ccccc1F | 823
59 | CCc1cccc(NS(=O)(=O)c2cc3n(c2)CCCN(C)C3=O)c1 | 728
60 | CCn1nccc1C(=O)N1C[C@@H]2CCCN3CCC[C@@H]([C@H]23)[C@H]1CCCC(=O)N1CCOCC1 | 572
61 | COc1ccc(Nc2c(-c3ccc(N(C)C)cc3)nc3cnc(Br)cn23)cc1OC | 812
62 | Cc1ccc(C)c(NC(=O)N2CCN(CCn3c(-c4ccncc4)nc4cccnc43)CC2)c1 | 608
63 | CCc1ccc(NS(=O)(=O)c2cc(-c3cc(C(F)(F)F)on3)sc2C)cc1 | 1230
64 | COc1ccc(-c2cc3nn(CC(=O)Nc4ccccc4OC)c(=O)n3c(C)n2)cc1 | 736
65 | COc1ccc(-c2nnc(COc3ccc(NC(=O)c4cnccn4)cc3)o2)cc1 | 800
66 | CCCNC(=O)c1ccc2c(=O)n(Cc3ccc(C)cc3)c(N(CC)CC)nc2c1 | 1060

Row | Compound | RP-LC retention time [s]
67 | CC(C)(C)c1noc(Cc2nnc(-c3ccc(F)cc3)o2)n1 | 942
68 | CCCCN(Cc1ccco1)c1nc(-c2ccc(OC)cc2)nc2ccccc12 | 940
69 | Cc1cccc(NC(=O)C2CCCN(c3ncnc4c3nc3n4CCCCC3)C2)n1 (configuration not stated) | 730
70 | Cn1c(=O)n(C)c2cc(S(=O)(=O)c3ccc(F)cc3)c(NC(=O)c3cccc(F)c3)cc21 | 896
71 | Nc1nc(F)nc2c1ncn2[C@@H]1O[C@H](COP(=O)(O)O)[C@@H](O)[C@@H]1O | 534
72 | COc1ccc(N2CCN(S(=O)(=O)c3cc(-c4csc(C)n4)sc3C)CC2)cc1 | 1090
73 | CC(C)NC(=O)CN1C(=O)COc2ccc(C(=O)N3CCc4ccccc4C3)cc21 | 744
74 | Cc1ccc(NC(=O)C2CCN(c3cc(N4CCSCC4)ncn3)CC2)cc1F | 734
75 | O=C(NCCOc1ccccc1)c1cccc(Br)c1 | 868
76 | COc1cc(NC(=O)CN2C(=O)C(C)(C)c3cc(Cl)ccc32)cc(OC)c1OC | 867
77 | O=C(NCC1(c2ccc(F)cc2)CC1)c1ccsc1 | 821
78 | COC(=O)c1ccccc1NC(=O)C1CCCN(c2nc3c(s2)c(C)nn3-c2ccccc2)C1 (configuration not stated) | 1380
79 | Cc1ccc(CNC(=O)C2(C)CN(S(C)(=O)=O)CC(=O)N2c2ccc(F)cc2C)cc1 (configuration not stated) | 790
80 | CC(C)Oc1ccc(NC(=O)C2CCN(S(C)(=O)=O)c3cc(Cl)ccc3O2)cc1 (configuration not stated) | 1020
81 | O=C(NCc1cccnc1)C1CCN(Cc2cc3ccccc3n2Cc2ccccc2)CC1 | 624
82 | CCn1ccc(C(=O)N2CCC(CC(=O)NC3CC3)C2)n1 (configuration not stated) | 630
83 | O=C(CCCS(=O)(=O)c1ccc(Cl)cc1)Nc1ccc([N+](=O)[O-])cc1 | 695
84 | C[C@H](NC(=O)/C(C#N)=C/c1cccc(Br)n1)c1ccccc1 | 934
85 | CNC(=O)c1c(NC(=O)c2ccccc2Cl)sc2c1CCC2 | 1010
86 | COc1ccccc1NC(=O)Cn1nc2c(Oc3cccc(F)c3)nccn2c1=O | 867
87 | CC(=O)c1ccc(NC(=O)Cn2cnc3nc4c(cc3c2=O)CC(C)CC4)cc1 (configuration not stated) | 738
